According to patent US8952157B2, “Apoptosis-inducing agents for the treatment of cancer and immune and autoimmune diseases” (AbbVie Inc., priority 2008, dated 2015):

molecular target: GST-Bcl-2 (Homo sapiens (Human), UniProt P10415); test: Time Resolved-Fluorescence Resonance Energy Transfer (TR-FRET) Bcl-2 binding assay; conditions: not given
In short: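 Competition TR-FRET: GST-Bcl-2 with fluorescent Bak peptide probe and Tb-anti-GST antibody, compounds serially diluted from 50 μM (2× start, 10% DMSO).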

GST-Bcl-2, sequence (P10415 whole entry): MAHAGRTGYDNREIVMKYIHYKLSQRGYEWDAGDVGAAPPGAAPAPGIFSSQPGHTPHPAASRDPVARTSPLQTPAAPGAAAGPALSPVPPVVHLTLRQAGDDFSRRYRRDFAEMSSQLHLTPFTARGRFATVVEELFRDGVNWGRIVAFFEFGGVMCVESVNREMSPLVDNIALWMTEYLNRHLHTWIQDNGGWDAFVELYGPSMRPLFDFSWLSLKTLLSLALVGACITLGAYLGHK

Question: `CC1(C)CCC(CN2CCN(c3ccc(C(=O)NS(=O)(=O)c4ccc(N[C@H]5CC[C@H](N6CCOCC6)CC5)c([N+](=O)[O-])c4)c(Oc4cccc5c4CCNC5=O)c3)CC2)=C(c2ccc(Cl)cc2)C1` [Example 304, Trans-4-(4-{[2-(4-chlorophenyl)-4,4-dimethylcyclohex-1-en-1-yl]methyl}piperazin-1-yl)-N-({4-[(4-morpholin-4-ylcyclohexyl)amino]-3-nitrophenyl}sulfonyl)-2-[(1-oxo-1,2,3,4-tetrahydroisoquinolin-5-yl)oxy]benzamide] was tested. Which Ki did it give?
Answer: Its Ki is 0.822 nM.

Question: How did the Ki turn out when `CC1(C)CCC(CN2CCN(c3ccc(C(=O)NS(=O)(=O)c4cnc(N[C@H]5CC[C@H](N6CCOCC6)CC5)c(Br)c4)c(Oc4cc5cc[nH]c5cc4F)c3)CC2)=C(c2ccc(Cl)cc2)C1` [Example 307, Trans-N-({5-bromo-6-[(4-morpholin-4-ylcyclohexyl)amino]pyridin-3-yl}sulfonyl)-4-(4-{[2-(4-chlorophenyl)-4,4-dimethylcyclohex-1-en-1-yl]methyl}piperazin-1-yl)-2-[(6-fluoro-1H-indol-5-yl)oxy]benzamide] was run?
Answer: The Ki was 0.524 nM.

same assay, conditions: GST-Bcl-2 1 nM, F-Bak peptide probe 100 nM, Tb-anti-GST antibody 1 nM; Ki by Wang's equation

Question: `CC1(C)CCC(CN2CCN(c3ccc(C(=O)NS(=O)(=O)c4ccc(NCCCN5CCNC(=O)C5)c([N+](=O)[O-])c4)c(Oc4cc5cc[nH]c5cc4F)c3)CC2)=C(c2ccc(Cl)cc2)C1` [Example 233, 4-(4-{[2-(4-chlorophenyl)-4,4-dimethylcyclohex-1-en-1-yl]methyl}piperazin-1-yl)-2-[(6-fluoro-1H-indol-5-yl)oxy]-N-[(3-nitro-4-{[3-(3-oxopiperazin-1-yl)propyl]amino}phenyl)sulfonyl]benzamide] was tested. Which Ki did it give?
Answer: The Ki was 0.037 nM.

Question: How did the Ki turn out when `CN1CCC(Nc2ccc(S(=O)(=O)NC(=O)c3ccc(N4CCN(CC5=C(c6ccc(Cl)cc6)CC(C)(C)CC5)CC4)cc3Oc3cccc(Cl)c3Cl)cc2[N+](=O)[O-])CC1` [Example 54, 4-(4-((2-(4-chlorophenyl)-4,4-dimethylcyclohex-1-en-1-yl)methyl)piperazin-1-yl)-2-(2,3-dichlorophenoxy)-N-((4-((1-methylpiperidin-4-yl)amino)-3-nitrophenyl)sulfonyl)benzamide] was run?
Answer: The Ki was 0.082 nM.

Question: For `CN(C)CCCc1c[nH]c2ccc(Oc3cc(N4CCN(Cc5ccccc5-c5ccc(Cl)cc5)CC4)ccc3C(=O)NS(=O)(=O)c3ccc(NCC4CCOCC4)c([N+](=O)[O-])c3)cc12` [Example 106, 4-(4-((4′-chloro-1,1′-biphenyl-2-yl)methyl)piperazin-1-yl)-2-((3-(3-(dimethylamino)propyl)-1H-indol-5-yl)oxy)-N-((3-nitro-4-((tetrahydro-2H-pyran-4-ylmethyl)amino)phenyl)sulfonyl)benzamide], which Ki is on record?
Answer: The Ki was 215 nM.

Question: With `CC(C)(C)OC(=O)N1CCN(c2cccc(Oc3cc(N4CCN(Cc5ccccc5-c5ccc(Cl)cc5)CC4)ccc3C(=O)NS(=O)(=O)c3ccc(NCC4CCOCC4)c([N+](=O)[O-])c3)c2)CC1` [Example 91, tert-butyl 4-(3-(5-(4-((4′-chloro-1,1′-biphenyl-2-yl)methyl)piperazin-1-yl)-2-((((3-nitro-4-((tetrahydro-2H-pyran-4-ylmethyl)amino)phenyl)sulfonyl)amino)carbonyl)phenoxy)phenyl)piperazine-1-carboxylate] as the compound, how does the Ki read?
Answer: Its Ki is greater than 1200 nM.

Question: With `CC1(C)CCC(CN2CCN(c3ccc(C(=O)NS(=O)(=O)c4ccc(NCCCN5CCOCC5)c([N+](=O)[O-])c4)c(Oc4ccccc4F)c3)CC2)=C(c2ccc(Cl)cc2)C1` [Example 125, 4-(4-{[2-(4-chlorophenyl)-4,4-dimethylcyclohex-1-en-1-yl]methyl}piperazin-1-yl)-2-(2-fluorophenoxy)-N-({4-[(3-morpholin-4-ylpropyl)amino]-3-nitrophenyl}sulfonyl)benzamide] as the compound, how does the Ki read?
Answer: Its Ki is 0.075 nM.

Question: Which Ki does the source give for `CC1(C)CCC(CN2CCN(c3ccc(C(=O)NS(=O)(=O)c4ccc(NCC5CCOCC5)c([N+](=O)[O-])c4)c(Oc4cccc5c4CCN(C(=O)OC(C)(C)C)C5)c3)CC2)=C(c2ccc(Cl)cc2)C1` [Example 260, tert-butyl 5-(5-(4-{[2-(4-chlorophenyl)-4,4-dimethylcyclohex-1-en-1-yl]methyl}piperazin-1-yl)-2-{[({3-nitro-4-[(tetrahydro-2H-pyran-4-ylmethyl)amino]phenyl}sulfonyl)amino]carbonyl}phenoxy)-3,4-dihydro isoquinoline-2(H)-carboxylate] here?
Answer: Its Ki is 11.8 nM.

Question: For `CC1(C)CCC(CN2CCN(c3ccc(C(=O)NS(=O)(=O)c4ccc(NCCCN5CCNC(=O)C5)c([N+](=O)[O-])c4)c(Oc4ccccc4Cl)c3)CC2)=C(c2ccc(Cl)cc2)C1` [Example 254, 2-(2-chlorophenoxy)-4-(4-{[2-(4-chlorophenyl)-4,4-dimethylcyclohex-1-en-1-yl]methyl}piperazin-1-yl)-N-[(3-nitro-4-{[3-(3-oxopiperazin-1-yl)propyl]amino}phenyl)sulfonyl]benzamide], which Ki is on record?
Answer: Its Ki is 0.119 nM.

Question: For `CN(C)CCCc1c[nH]c2cccc(Oc3cc(N4CCN(CC5=C(c6ccc(Cl)cc6)CC(C)(C)CC5)CC4)ccc3C(=O)NS(=O)(=O)c3ccc(NN4CCN(C)CC4)c([N+](=O)[O-])c3)c12` [Example 340, 4-(4-{[2-(4-chlorophenyl)-4,4-dimethylcyclohex-1-en-1-yl]methyl}piperazin-1-yl)-2-({3-[3-(dimethylamino)propyl]-1H-indol-4-yl}oxy)-N-({4-[(4-methylpiperazin-1-yl)amino]-3-nitrophenyl}sulfonyl)benzamide], which Ki is on record?
Answer: Its Ki is 0.385 nM.

Question: How did the Ki turn out when `CC1(C)CCC(CN2CCN(c3ccc(C(=O)NS(=O)(=O)c4ccc(OCC5COCCO5)c([N+](=O)[O-])c4)c(Oc4cc5cc[nH]c5cc4Cl)c3)CC2)=C(c2ccc(Cl)cc2)C1` (stereo not shown) [Example 290, 2-[(6-chloro-1H-indol-5-yl)oxy]-4-(4-{[2-(4-chlorophenyl)-4,4-dimethylcyclohex-1-en-1-yl]methyl}piperazin-1-yl)-N-{[4-(1,4-dioxan-2-ylmethoxy)-3-nitrophenyl]sulfonyl}benzamide] was run?
Answer: Its Ki is 0.251 nM.

Question: Which Ki does the source give for `CC1(C)CCC(CN2CCN(c3ccc(C(=O)NS(=O)(=O)c4cnc(OCCN5CCOCC5)c(C#N)c4)c(Oc4cc5cc[nH]c5cc4F)c3)CC2)=C(c2ccc(Cl)cc2)C1` [Example 310, 4-(4-{[2-(4-chlorophenyl)-4,4-dimethylcyclohex-1-en-1-yl]methyl}piperazin-1-yl)-N-{[5-cyano-6-(2-morpholin-4-ylethoxy)pyridin-3-yl]sulfonyl}-2-[(6-fluoro-1H-indol-5-yl)oxy]benzamide] here?
Answer: The Ki was 0.155 nM.

Question: With `CC1(C)CC(c2ccc(Cl)cc2)=C(CN2CCN(c3ccc(C(=O)NS(=O)(=O)c4cnc(OCC5(F)CCOCC5)c(Cl)c4)c(Oc4cnc(N)c(Cl)c4)c3)CC2)CO1` [Example 390, 2-[(6-amino-5-chloropyridin-3-yl)oxy]-N-({5-chloro-6-[(4-fluorotetrahydro-2H-pyran-4-yl)methoxy]pyridin-3-yl}sulfonyl)-4-(4-{[4-(4-chlorophenyl)-6,6-dimethyl-5,6-dihydro-2H-pyran-3-yl]methyl}piperazin-1-yl)benzamide] as the compound, how does the Ki read?
Answer: Its Ki is less than 0.01 nM.

Question: With `CC(C)(C)OC(=O)Nc1ccc(Oc2cc(N3CCN(Cc4ccccc4-c4ccc(Cl)cc4)CC3)ccc2C(=O)NS(=O)(=O)c2ccc(NCC3CCOCC3)c([N+](=O)[O-])c2)cc1` [Example 83, tert-butyl 4-(5-(4-((4′-chloro-1,1′-biphenyl-2-yl)methyl)piperazin-1-yl)-2-((((3-nitro-4-((tetrahydro-2H-pyran-4-ylmethyl)amino)phenyl)sulfonyl)amino)carbonyl)phenoxy)phenylcarbamate] as the compound, how does the Ki read?
Answer: Its Ki is greater than 1200 nM.

Question: Which Ki does the source give for `CC1(C)CCC(CN2CCN(c3ccc(C(=O)NS(=O)(=O)c4ccc(NC(CO)C5CCOCC5)c([N+](=O)[O-])c4)c(Oc4cc5cc[nH]c5cc4F)c3)CC2)=C(c2ccc(Cl)cc2)C1` (stereo not shown) [Example 240, 4-(4-{[2-(4-chlorophenyl)-4,4-dimethylcyclohex-1-en-1-yl]methyl}piperazin-1-yl)-2-[(6-fluoro-1H-indol-5-yl)oxy]-N-({4-[(2-hydroxy-1-tetrahydro-2H-pyran-4-ylethyl)amino]-3-nitrophenyl}sulfonyl)benzamide] here?
Answer: Its Ki is 0.912 nM.

Question: How did the Ki turn out when `CN(C)CCc1ccccc1Oc1cc(N2CCN(Cc3ccccc3-c3ccc(Cl)cc3)CC2)ccc1C(=O)NS(=O)(=O)c1ccc(NCC2CCOCC2)c([N+](=O)[O-])c1` [Example 29, 4-(4-((4′-chloro-1,1′-biphenyl-2-yl)methyl)piperazin-1-yl)-2-(2-(2-(dimethylamino)ethyl)phenoxy)-N-((3-nitro-4-((tetrahydro-2H-pyran-4-ylmethyl)amino)phenyl)sulfonyl)benzamide] was run?
Answer: The Ki was 0.903 nM.

Question: With `CN1CC[C@@H](Nc2ccc(S(=O)(=O)NC(=O)c3ccc(N4CCN(CC5=C(c6ccc(Cl)cc6)CC(C)(C)CC5)CC4)cc3Oc3cccc(Cl)c3)cc2[N+](=O)[O-])C1` [Example 195, 2-(3-chlorophenoxy)-4-(4-{[2-(4-chlorophenyl)-4,4-dimethylcyclohex-1-en-1-yl]methyl}piperazin-1-yl)-N-[(4-{[(3R)-1-methylpyrrolidin-3-yl]amino}-3-nitrophenyl)sulfonyl]benzamide] as the compound, how does the Ki read?
Answer: Its Ki is 0.684 nM.

Question: How did the Ki turn out when `CN1CCC(Nc2ccc(S(=O)(=O)NC(=O)c3ccc(N4CCN(CC5=C(c6ccc(Cl)cc6)CC(C)(C)C5)CC4)cc3Oc3ccccc3Cl)cc2[N+](=O)[O-])CC1` [Example 62, 2-(2-chlorophenoxy)-4-(4-((2-(4-chlorophenyl)-4,4-dimethylcyclopent-1-en-1-yl)methyl)piperazin-1-yl)-N-((4-((1-methylpiperidin-4-yl)amino)-3-nitrophenyl)sulfonyl)benzamide] was run?
Answer: Its Ki is 0.227 nM.

Question: Which Ki does the source give for `CN(C)CCc1ccc(Oc2cc(N3CCN(Cc4ccccc4-c4ccc(Cl)cc4)CC3)ccc2C(=O)NS(=O)(=O)c2ccc(NCC3CCOCC3)c([N+](=O)[O-])c2)cc1` [Example 87, 4-(4-((4′-chloro-1,1′-biphenyl-2-yl)methyl)piperazin-1-yl)-2-(4-(2-(dimethylamino)ethyl)phenoxy)-N-((3-nitro-4-((tetrahydro-2H-pyran-4-ylmethyl)amino)phenyl)sulfonyl)benzamide] here?
Answer: Its Ki is 264 nM.
